Assay results: patent publication US20230107216A1, “PANTETHEINE DERIVATIVES AND USES THEREOF” (Comet Therapeutics, Inc., priority 2018, published 2023)

What was measured:
[1] = test system: oligodendrocyte precursor cells (OPC) in mixed brain cultures; assay: Oligodendrocyte precursor cells (OPC) proliferation, O4+ cell count; format: cell-based, mouse; details: 10 uM
Protocol: The effect of compounds of the present disclosure was determined on oligodendrocyte precursor cells proliferation (OPC).
Cell culture. Brains of wild type mice (whole brain from 1 or 2 mouse pups) less than postnatal day (P) 2 were isolated and cultured. Briefly, following removal of the meninges, cells were dissociated with 0.25% EDTA/CMF-DMEM and 1% Trypsin (1:1), plated at a density of 75,000 cells/on 0.1 mg/ml poly-L-lysine coated borosilicate glass coverslips in 24-well plates, grown in OPC differentiation media (Oligo media) consisting of DMEM/F12 (Invitrogen 21331-020) supplemented with 1% FBS, 1% N2 Neural Supplement (Invitrogen 17502-048) and PDGF receptor alpha growth factor (Invitrogen 17502-048). Cells were fed every other day and allowed to grow for 7 days in vitro (DIV).
OPCs treatment with compounds of the present disclosure. Cells were treated with compounds of the present disclosure (50-10 μM) or vehicle (0.1% DMSO) starting at 7 DIV. Media was replaced daily with freshly made working solutions of compounds or vehicle for either 48 h (9 DIV total) or 96 h (11 DIV). The 48 h group consisted of 1 coverslip per condition. The 96 h group was treated in duplicate.
Fresh aliquots of compounds of the present disclosure were made up on the day of treatment, briefly, a 50 mM stock was thawed and used to make up fresh 50 μM working solution in Oligo Media. The fresh 50 μM working solution was diluted further in Oligo Media to make 10 μM working solution. Vehicle controls was made up in fresh Oligo Media using the appropriate amount of vehicle (DMSO). Coverslips were stored in clean 24-well plates at 4° C. until fixed-staining. Cells were imaged using Leica DM5500 fluorescent microscope with LAS-X software.
Exposure settings were maintained at the same rate across compounds of the same time-point. Cells were imaged at 20× and 40× magnifications. At least 5 images were taken per condition. Most conditions had at least 5 images that were counted. 20× images were utilized for counting DAPI (cell nuclei) and O4+ cells.
Total DAPI per image for all images was counted using ImageJ as here indicated. • Image was converted to 8 bit • Blue Channel (DAPI) was automatically thresholded by default ImageJ settings • Image noise was reduced by ImageJ>Process>Noise>Despeckle • ImageJ>Process>Binary>Watershed was used to automatically separate merged cell nuclei • ImageJ>Analyze>Analyze Particles was used to obtain final count of DAPI per image • Total number of DAPI-positive cells
Total number of O4+ cells per 20× image was manually counted using Adobe Photoshop: • All cell bodies of OPCs with underlying DAPI stain were counted as an O4+ cell • Total number of O4+ cells were recorded in Excel Spreadsheet O4+ cells in mixed brain cultures of wild type mice <P2 treated with compounds of the present disclosure or vehicle were quantified per condition (time point and concentration). The following formula was used to normalize the total cell counts within a compound as well as across compounds treated for the same duration (48h vs. 96h):
(number of O4+cell counts in Compound X/Average DAPI count for Compound X)*Total Average DAPI count across compounds of same Time Point
Values were plotted as Scatter Interval plots in Origin. Each data point represents a single image from which O4+ cell values were obtained. Data are presented as mean±S.E.
Images are at 20× magnification and represent 1-2 coverslips per group. Scale bar, 50 μm.

[2] = test system: Peripheral blood mononuclear cells co-cultured with venular endothelial cells (Sag system); assay: BioMAP Sag system (T-cell ligands); format: cell-based, human; details: 10 uM; procedure of Example 828
Protocol: The BioMAP platform (BioMAP® Diversity PLUS® Panel from Eurofins) is an in vitro phenotypic profiling technology that screened the compounds of the present disclosure (hereafter indicated as test agents) in human primary cell-based systems modelling complex tissue and disease states. The BioMAP assays were performed using the Eurofin's BioMAP Technology Platform as (see references 1 to 13 in the example 824 section) to model different diseases on primary cell-based model systems. These systems consisted of either single primary cell types or co-culture cells. Adherent cell types were cultured or co-cultured in 96 or 384-well plates until confluence followed by the addition of compounds prepared in DMSO at a final concentration of ≤0.1%. In each cell-based system, primary cells from heathy donors (2-6 donors) were pooled and treated with compounds at 1 and 10 μM dose 1h prior to stimulation and remain in culture as indicated in Example 825, Example 826, Example 827, Example 828, Example 829, Example 830, Example 831, Example 832, Example 833, Example 834, Example 835, Example 836 and Example 837. For on the BioMAP® Diversity PLUS® Panel, please see the following references, which are incorporate herein.
Following the general procedure as described in Example 824, Peripheral blood mononuclear cells were co-cultured with venular endothelial cells and treated with soluble antigen (T-cell ligands) (Sag system) in the presence or absence of compounds to model autoimmune and chronic inflammation. Biomarkers read out were; MCP-1, CD38, CD40, E-selectin, CD69, IL-8, MIG, PBMC cytotoxicity, Proliferation and SRB.

Structure (SMILES) | % Increase OPC proliferation [1] | other results
CC(=O)SCCNC(=O)CCNC(=O)[C@H](O)C(C)(C)COC(=O)[C@@H](N)Cc1ccc(O)c(O)c1 [Compound 498, (3R)-3-[(2-[[2-(acetylsulfanyl)ethyl]carbamoyl]ethyl)carbamoyl]-3-hydroxy-2,2-dimethylpropyl (2S)-2-amino-3-(3,4-dihydroxyphenyl)propanoate] | ≥25% | % decrease in Proliferation [2]: ≥10%
COC(=O)CC(C(C)=O)C(=O)SCCNC(=O)CCNC(=O)[C@H](O)C(C)(C)CO (stereo partly shown) [Compound 410] | ≥25% | –
C[C@@H](O)CC(=O)CC(=O)SCCNC(=O)CCNC(=O)[C@H](O)C(C)(C)CO [Compound 42, (2R)-2,4-dihydroxy-N-[2-[(2-[[(5R)-5-hydroxy-3-oxohexanoyl]sulfanyl]ethyl)carbamoyl]ethyl]-3,3-dimethylbutanamide] | – | % increase in Proliferation [2]: ≥10%
CC(C)(CO)[C@@H](O)C(=O)NCCC(=O)NCCSC(=O)CCCN [Compound 370, (2R)—N-[2-([2-[(4-aminobutanoyl)sulfanyl]ethyl]carbamoyl)ethyl]-2,4-dihydroxy-3,3-dimethylbutanamide] | ≥10% | –
C[C@@H](O)CC(=O)SCCNC(=O)CCNC(=O)[C@H](O)C(C)(C)CO [Compound 38, S-2-{3-[(R)-2,4-dihydroxy-3,3-dimethylbutyrylamino]propionylamino} ethyl (R)-3-hydroxybutanethioate] | ≥25% | –
CC(C)(CO)[C@@H](O)C(=O)NCCC(=O)NCCSC(=O)CCC(=O)O [Compound 1, (R)-4-((2-(3-(2,4-dihydroxy-3,3-dimethylbutanamido)propanamido)ethyl)thio)-4-oxobutanoic acid] | ≥25% | –
CC(C)(CO)[C@@H](O)C(=O)NCCC(=O)NCCSC(=O)[C@@H](N)Cc1ccc(O)c(O)c1 [Compound 371, (2R)—N-[2-[(2-[[(2S)-2-amino-3-(3,4-dihydroxyphenyl)propanoyl]sulfanyl]ethyl)carbamoyl]ethyl]-2,4-dihydroxy-3,3-dimethylbutanamide] | – | % decrease in Proliferation [2]: ≥10%; % increase in PBMC cytotoxicity [2]: ≥10%
CCCCCCC(=O)SCCNC(=O)CCNC(=O)[C@H](O)C(C)(C)CO [Compound 372, (2R)—N-(2-[[2-(heptanoylsulfanyl)ethyl]carbamoyl]ethyl)-2,4-dihydroxy-3,3-dimethylbutanamide] | – | % increase in Proliferation [2]: ≥10%
